According to US12029739B2, “SHP2 inhibitor and use thereof” (KANAPH THERAPEUTICS INC., priority 2021, dated 2024):

Key:
SHP2 (full length) = target: T1, SHP2 (full length) (Homo sapiens, UniProt Q06124); test: Phosphatase assay (PTPase assay) with DiFMUP substrate; format: biochemical; details: SHP2 activated with SHP2 activating peptide; DiFMUP 80 μM, 2 hours; fluorescence; read-out: IC50 (PTPase aS say)
T1 construct: SHP2 (full length, diluted to 100 pM final concentration in reaction buffer, BPS bioscience, US); purchased BPS bioscience, US
T1 sequence (Q06124 1-593): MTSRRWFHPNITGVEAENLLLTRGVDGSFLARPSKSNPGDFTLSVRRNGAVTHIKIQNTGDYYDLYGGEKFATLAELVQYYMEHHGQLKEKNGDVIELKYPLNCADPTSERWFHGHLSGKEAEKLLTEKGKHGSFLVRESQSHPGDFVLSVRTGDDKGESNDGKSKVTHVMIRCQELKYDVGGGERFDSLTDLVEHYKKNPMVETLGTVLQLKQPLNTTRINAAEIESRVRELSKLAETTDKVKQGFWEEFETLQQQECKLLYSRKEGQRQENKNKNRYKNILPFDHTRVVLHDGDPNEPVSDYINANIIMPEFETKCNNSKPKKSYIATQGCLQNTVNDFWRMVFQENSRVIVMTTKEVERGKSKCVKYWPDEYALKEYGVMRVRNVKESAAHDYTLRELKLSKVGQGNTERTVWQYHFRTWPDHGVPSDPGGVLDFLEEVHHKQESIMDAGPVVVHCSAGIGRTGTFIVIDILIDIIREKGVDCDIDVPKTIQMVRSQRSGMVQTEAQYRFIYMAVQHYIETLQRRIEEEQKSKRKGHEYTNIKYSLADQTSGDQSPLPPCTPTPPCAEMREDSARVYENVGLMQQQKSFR

[1] = tested on: phospho-ERK in MIA PaCa2 or H358 cells; test: Phospho-ERK assay (AlphaLisa); format: cell-based; details: 1.5 h, MIA PaCa2 or H358 cells, compound incubated 1.5 hours; read-out: IC50 (p-ERK)

SMILES	IC50 (SHP2 (full length)) [nM]	IC50 [1] [nM]
C[C@@H]1OCC2(CCN(c3cnc(Sc4ccc5ncn(Cc6nc7ccccc7[nH]6)c(=O)c5c4Cl)cn3)CC2)[C@@H]1N [Example 37, 3-((1H-benzo[d]imidazol-2-yl)methyl)-6-((5-((3S,4S)-4-amino-3-methyl-2-oxa-8-azaspiro[4.5]decan-8-yl)pyrazin-2-yl)thio)-5-chloroquinazolin-4(3H)-one]	< 3	< 45
C[C@@H]1OCC2(CCN(c3cnc(Sc4ccc5ncn(Cc6ccncc6)c(=O)c5c4Cl)cn3)CC2)[C@@H]1N [Example 39, 6-((5-((3S,4S)-4-amino-3-methyl-2-oxa-8-azaspiro[4.5]decan-8-yl)pyrazin-2-yl)thio)-5-chloro-3-(pyridin-4-ylmethyl)quinazolin-4(3H)-one]	3 to 100	45 to 1500
C[C@@H]1OCC2(CCN(c3cnc(Sc4ccc5ncn(Cc6ccc(F)cc6)c(=O)c5c4Cl)cn3)CC2)[C@@H]1N [Example 40, 6-((5-((3S,4S)-4-amino-3-methyl-2-oxa-8-azaspiro[4.5]decan-8-yl)pyrazin-2-yl)thio)-5-chloro-3-(4-fluorobenzyl)quinazolin-4(3H)-one]	< 3	45 to 1500
COc1ccc(Cn2cnc3ccc(Sc4cnc(N5CCC6(CC5)CO[C@@H](C)[C@H]6N)cn4)c(Cl)c3c2=O)cc1 [Example 41, 6-((5-((3S,4S)-4-amino-3-methyl-2-oxa-8-azaspiro[4.5]decan-8-yl)pyrazin-2-yl)thio)-5-chloro-3-(4-methoxybenzyl)quinazolin-4(3H)-one]	< 3	< 45
C[C@@H]1OCC2(CCN(c3cnc(Sc4ccc5ncn(Cc6ccc7cc[nH]c7n6)c(=O)c5c4Cl)cn3)CC2)[C@@H]1N [Example 42, 3-((1H-pyrrolo[2,3-b]pyridin-6-yl)methyl)-6-((5-((3S,4S)-4-amino-3-methyl-2-oxa-8-azaspiro[4.5]decan-8-yl)pyrazin-2-yl)thio)-5-chloroquinazolin-4(3H)-one]	< 3	< 45
C[C@@H]1OCC2(CCN(c3cnc(Sc4ccc5ncn(Cc6ccccc6F)c(=O)c5c4Cl)cn3)CC2)[C@@H]1N [Example 43, 6-((5-((3S,4S)-4-amino-3-methyl-2-oxa-8-azaspiro[4.5]decan-8-yl)pyrazin-2-yl)thio)-5-chloro-3-(2-fluorobenzyl)quinazolin-4(3H)-one]	< 3	< 45
C[C@@H]1OCC2(CCN(c3cnc(Sc4ccc5ncn(Cc6cnccn6)c(=O)c5c4Cl)cn3)CC2)[C@@H]1N [Example 44, 6-((5-((3S,4S)-4-amino-3-methyl-2-oxa-8-azaspiro[4.5]decan-8-yl)pyrazin-2-yl)thio)-5-chloro-3-(pyrazin-2-ylmethyl)quinazolin-4(3H)-one]	< 3	< 45
C[C@@H]1OCC2(CCN(c3cnc(Sc4ccc5ncn(Cc6ccncn6)c(=O)c5c4Cl)cn3)CC2)[C@@H]1N [Example 45, 6-((5-((3S,4S)-4-amino-3-methyl-2-oxa-8-azaspiro[4.5]decan-8-yl)pyrazin-2-yl)thio)-5-chloro-3-(pyrimidin-4-ylmethyl)quinazolin-4(3H)-one]	< 3	< 45
C[C@@H]1OCC2(CCN(c3cnc(Sc4ccc5ncn(Cc6cncnc6)c(=O)c5c4Cl)cn3)CC2)[C@@H]1N [Example 46, 6-((5-((3S,4S)-4-amino-3-methyl-2-oxa-8-azaspiro[4.5]decan-8-yl)pyrazin-2-yl)thio)-5-chloro-3-(pyrimidin-5-ylmethyl)quinazolin-4(3H)-one]	3 to 100	< 45
C[C@@H]1OCC2(CCN(c3cnc(Sc4ccc5ncn(Cc6nc7ccccc7o6)c(=O)c5c4Cl)cn3)CC2)[C@@H]1N [Example 47, 6-((5-((3S,4S)-4-amino-3-methyl-2-oxa-8-azaspiro[4.5]decan-8-yl)pyrazin-2-yl)thio)-3-(benzooxazol-2-ylmethyl)-5-chloroquinazolin-4(3H)-one]	< 3	< 45
C[C@@H]1OCC2(CCN(c3cnc(Sc4ccc5ncn(Cc6ccc(N)nc6)c(=O)c5c4Cl)cn3)CC2)[C@@H]1N [Example 48, 6-((5-((3S,4S)-4-amino-3-methyl-2-oxa-8-azaspiro[4.5]decan-8-yl)pyrazin-2-yl)thio)-3-((6-aminopyridin-3-yl)methyl)-5-chloroquinazolin-4(3H)-one]	< 3	< 45
C[C@@H]1OCC2(CCN(c3cnc(Sc4ccc5nn(Cc6ccccc6)cc5c4Cl)cn3)CC2)[C@@H]1N [Example 49, (3S,4S)-8-(5-((2-benzyl-4-chloro-2H-indazol-5-yl)thio)pyrazin-2-yl)-3-methyl-2-oxa-8-azaspiro[4.5]decan-4-amine]	3 to 100	> 1500
C[C@@H]1OCC2(CCN(c3cnc(Sc4ccc5nc(Cc6ccccc6)[nH]c5c4Cl)cn3)CC2)[C@@H]1N [Example 50, (3S,4S)-8-(5-((2-benzyl-7-chloro-1H-benzo[d]imidazol-6-yl)thio)pyrazin-2-yl)-3-methyl-2-oxa-8-azaspiro[4.5]decan-4-amine]	3 to 100	45 to 1500
C[C@@H]1OCC2(CCN(c3cnc(Sc4ccc5ncn(-c6ccccc6)c(=O)c5c4Cl)cn3)CC2)[C@@H]1N [Example 51, 6-((5-((3S,4S)-4-amino-3-methyl-2-oxa-8-azaspiro[4.5]decan-8-yl)pyrazin-2-yl)thio)-5-chloro-3-phenylquinazolin-4(3H)-one]	< 3	45 to 1500
C[C@@H]1OCC2(CCN(c3cnc(Sc4ccc5ncn(Cc6cccnc6N)c(=O)c5c4Cl)cn3)CC2)[C@@H]1N [Example 52, 6-((5-((3S,4S)-4-amino-3-methyl-2-oxa-8-azaspiro[4.5]decan-8-yl)pyrazin-2-yl)thio)-3-((2-aminopyridin-3-yl)methyl)-5-chloroquinazolin-4(3H)-one]	3 to 100	45 to 1500
C[C@@H]1OCC2(CCN(c3cnc(Sc4ccc5ncn(Cc6ccn(C)n6)c(=O)c5c4Cl)cn3)CC2)[C@@H]1N [Example 53, 6-((5-((3S,4S)-4-amino-3-methyl-2-oxa-8-azaspiro[4.5]decan-8-yl)pyrazin-2-yl)thio)-5-chloro-3-((1-methyl-1H-pyrazol-3-yl)methyl)quinazolin-4(3H)-one]	3 to 100	< 45
C[C@@H]1OCC2(CCN(c3cnc(Sc4ccc5ncn(Cc6ccnc(Cl)c6)c(=O)c5c4Cl)cn3)CC2)[C@@H]1N [Example 60, 6-((5-((3S,4S)-4-amino-3-methyl-2-oxa-8-azaspiro[4.5]decan-8-yl)pyrazin-2-yl)thio)-5-chloro-3-((2-chloropyridin-4-yl)methyl)quinazolin-4(3H)-one]	< 3	< 45
C[C@@H]1OCC2(CCN(c3cnc(Sc4ccc5ncn(CC6CCOC6)c(=O)c5c4Cl)cn3)CC2)[C@@H]1N (stereo partly drawn) [Example 61, 6-((5-((3S,4S)-4-amino-3-methyl-2-oxa-8-azaspiro[4.5]decan-8-yl)pyrazin-2-yl)thio)-5-chloro-3-((tetrahydrofuran-3-yl)methyl)quinazolin-4(3H)-one]	< 3	< 45
C[C@@H]1OCC2(CCN(c3cnc(Sc4ccc5ncn(CC6CCCO6)c(=O)c5c4Cl)cn3)CC2)[C@@H]1N (stereo partly drawn) [Example 62, 6-((5-((3S,4S)-4-amino-3-methyl-2-oxa-8-azaspiro[4.5]decan-8-yl)pyrazin-2-yl)thio)-5-chloro-3-((tetrahydrofuran-2-yl)methyl)quinazolin-4(3H)-one]	< 3	< 45
C[C@@H]1OCC2(CCN(c3cnc(Sc4ccc5ncn(CCCO)c(=O)c5c4Cl)cn3)CC2)[C@@H]1N [Example 63, 6-((5-((3S,4S)-4-amino-3-methyl-2-oxa-8-azaspiro[4.5]decan-8-yl)pyrazin-2-yl)thio)-5-chloro-3-(3-hydroxypropyl)quinazolin-4(3H)-one]	< 3	< 45
COCCn1cnc2ccc(Sc3cnc(N4CCC5(CC4)CO[C@@H](C)[C@H]5N)cn3)c(Cl)c2c1=O [Example 64, 6-((5-((3S,4S)-4-amino-3-methyl-2-oxa-8-azaspiro[4.5]decan-8-yl)pyrazin-2-yl)thio)-5-chloro-3-(2-methoxyethyl)quinazolin-4(3H)-one]	< 3	< 45
C[C@@H]1OCC2(CCN(c3cnc(Sc4ccc5ncn(CC6CCOCC6)c(=O)c5c4Cl)cn3)CC2)[C@@H]1N [Example 65, 6-((5-((3S,4S)-4-amino-3-methyl-2-oxa-8-azaspiro[4.5]decan-8-yl)pyrazin-2-yl)thio)-5-chloro-3-((tetrahydro-2H-pyran-4-yl)methyl)quinazolin-4(3H)-one]	< 3	< 45
C[C@@H]1OCC2(CCN(c3cnc(Sc4ccc5ncn(Cc6cccc(O)c6)c(=O)c5c4Cl)cn3)CC2)[C@@H]1N [Example 66, 6-((5-((3S,4S)-4-amino-3-methyl-2-oxa-8-azaspiro[4.5]decan-8-yl)pyrazin-2-yl)thio)-5-chloro-3-(3-hydroxybenzyl)quinazolin-4(3H)-one]	< 3	< 45
